{
  "source": "patent US8653132B2",
  "about": "“Phosphaplatins and their use in pharmaceutical compositions” (Ohio University, priority 2007, dated 2014)",
  "key": {"[1]": {"tested_on": "synthetic 25-mer oligonucleotide (SEQ ID NO:1)", "test": "Platinum-DNA binding by NMR, 25-mer oligonucleotide", "details": "1H NMR, identical conditions for both complexes", "method": "In the associated experiment, dach-2 was allowed to react with double-stranded calf-thymus DNA, a synthetic oligonucleotide (5′-[…]-3′; SEQ ID NO:1), a dinucleotide (dGpG), and nucleotide monophosphates (5′-dGMP and 5′-dAMP) at concentrations as much as 250-times higher than those of cellular doses. The extent of DNA binding was monitored by ^1H NMR spectroscopy. In parallel, similar reactions with cisplatin were conducted under identical conditions.\nProton NMR spectroscopic experiments were conducted on a Bruker 500 MHz NMR instrument in 99% (atom) D2O with a water suppression pulse sequence. Samples contained cisplatin (2.0 mM) or pyrodach-2 (2.0 mM) and nucleotides (5′-dGMP, 5′-dAMP, dGpG (5.0 mM)), and, single- and double stranded DNA (calf thymus, 5.0 mM) at pH 7.0 maintained by phosphate and carbonate buffers (10-20 mM). Reactions of cisplatin (0.25 mM) and pyrodach-2 (0.25 mM) with a synthetic 25-mer: 5′-[…]-3′ (SEQ ID NO: 1) (0.25 mM) were also performed under identical conditions. Reactions were carried out up to 7 days, and ^1H and ^31P NMR spectra were recorded at regular time intervals. Usually, a pulse width of 5 μs with a 1.0 s repetition delay was used for the measurements. Typically, a sweepwidth of 10,000 Hz and 32 K data points were selected to collect the Free Induction Decays. A line broadening factor of 1 Hz was for applied Fourier transformation. […]"}, "BAK1": {"tested_on": "BAK1", "test": "Apoptotic gene array, real-time PCR: BAK1", "assay_type": "cell-based", "details": "preliminary", "method": "(§1) Preliminary gene expression experiments involving complexes of the present invention as compared to cisplatin (data not shown) were carried out with an apoptotic array containing 84 genes that includes the BCL2 superfamily, both pro- and anti-apoptotic, caspases, the BIR-family, TNF receptor […] factors, p53 and its congeners, and fas associated members by real-time PCR. A closer look at the two sets of gene expressions clearly indicates a number of differences in the expression patterns. […] Specifically, fas was over-expressed by 6-fold compared to the control, and TNFRS genes such as TNFRSF-10B was overexpressed by 2-3 folds over controls. These latter receptor factors belong to the fas superfamily."}, "A2780/C30 cells": {"tested_on": "A2780/C30 cells", "test": "Cellular accumulation of platinum by atomic absorption, A2780/C30", "assay_type": "cell-based, human", "details": "1 hr exposure", "method": "(§2) Platinum content was quantitatively estimated on a Graphite Furnace Atomic Absorption Spectrometer (Perkin Elmer AA-600) from calibration curves established by using cisplatin or pyrodach-2 in water. Cells (5×10^6) were seeded in T75 cm^2 flasks. After 24 h, these cells were then treated with the different concentrations (0, 10, 20, 30 and 50 μM) of cisplatin and pyrodach-2. After 1 hr exposure with the platinum complexes, the drug-containing medium was removed and the cells were washed with ice-cold phosphate-buffered saline (PBS). The cells were then trypsinized and centrifuged into a pellet. Cell pellets were digested in concentrated HNO3 and H2O2 prior to analysis, according to the method of McGahan. Data reported in Table 4 were collected from three independent experiments each was carried out in duplicate. For the cisplatin accumulation, data were obtained from triplicate runs from a single sample at a given concentration."}, "DNA of A2780 cells": {"tested_on": "DNA of A2780 cells", "test": "DNA-bound platinum in cells by atomic absorption", "assay_type": "cell-based, human", "details": "up to 50 micromolar, treated up to 24 hours", "method": "For DNA-Pt measurements, 1.0×10^7 cells were seeded in T75 cm^2 flasks. After 24 hr, the platinum complexes were added at the different concentrations 0, 10, 20, 30 and 50 μM. Cells were treated with the platinum complexes for 24 hours. Following treatment, the medium was removed and cells were washed with ice-cold PBS. The cells were trypsinized and centrifuged into a pellet. DNA was extracted using a Wizard® SV DNA purification kit (Promega). The DNA was quantitatively estimated from the absorption at 260 nm using a NanoDrop UV-Vis instrument."}, "CHO cell line": {"tested_on": "CHO cell line", "test": "Cytotoxic assay, CHO", "assay_type": "cell-based", "excerpt": "In some embodiments, the complexes of the present invention are useful for treating various cancers. […] The complexes of the present invention are particularly desirable because they may have reduced toxicity in vivo."}, "[2]": {"test": "pKa from 31P chemical shift as a function of pH", "assay_type": "physicochemical"}, "[3]": {"tested_on": "A2780 human ovarian cancer cells", "test": "Clonogenic assay, A2780", "assay_type": "cell-based", "details": "1 hour drug treatment, 1 week colony formation, read-out: IC50 A780", "method": "Human ovarian cancer cells, A2780, were obtained from Dr. Thomas Hamilton (Fox Chase Cancer Center, Philadelphia, Pa.). Cells were cultured on monolayer using RPMI 1640 supplemented with 10% fetal bovine serum, 2 mM glutamine, 0.25 units/mL insulin and penicillin/streptomycin in a 37 degrees C. incubator continuously gassed with 5% CO2. Cells were subcultured using 0.0625% trypsin in HBSS to maintain cells in exponential growth.\nIC50 values were determined using a clonogenic assay. Briefly, 500 A2780 cells from a single cell suspension were plated onto 60mm Petri plates 24 hours before drug treatment to permit cell attachment. On the day of drug treatment, the medium was decanted and replaced with the drug and these treated cells were placed back into the 37 degrees C. incubator for 1 hour. Triplicate plates were set up for each drug concentration. After the 1 hour drug treatment, the drug containing medium was decanted and replaced with fresh medium. These plates were returned to the 37 degrees C. incubator for 1 week for colony formation. Colonies were fixed and stained using 2% crystal violet in absolute methanol. Colonies containing more than 50 cells were scored. The number of scored colonies from the triplicate plates was averaged and this number was divided by the number of cells plated to obtain a value for the fraction of cells forming colonies. These values for fraction of cells forming colonies were then corrected for plating efficiency by dividing it by the number of cells forming colonies in plates that were not treated with drug."}, "fas": {"tested_on": "fas", "test": "Apoptotic gene array, real-time PCR: fas", "assay_type": "cell-based", "details": "preliminary", "method": "as §1"}, "[4]": {"test": "Stability in aqueous solution by 31P NMR", "assay_type": "physicochemical", "method": "Starting with the bottom spectrum in each panel, spectra were recorded at 24 hour time intervals.\nAt neutral pH, the isolated monomeric Pt(II) and Pl(IV) complexes of the present invention are stable. […] However, in the same time interval, slow deligation due to the release of the pyrophosphate ligand was evident at pH 4.2 by the appearance of the free pyrophosphate signal at −10.3 ppm. At the same time, an insoluble pyrophosphate-bridged dinuclear platinum(II) product was formed."}, "A2780 cells": {"tested_on": "A2780 cells", "test": "Cellular accumulation of platinum by atomic absorption, A2780", "assay_type": "cell-based, human", "details": "for Cellular accumulation of platinum: 1 hr exposure", "method": "as §2"}, "[5]": {"details": "calculated from phosphorus-31 chemical shifts"}},
  "data": [
    {"smiles": "NC1CCCCC1N.O=P([O-])(O)OP(=O)([O-])O.[Pt+2]", "note": "[dach-2, (Trans-1,2-cyclohexanediamine)(dihydrogenpyrophosphato)platinum(II)]", "values": [
      {"measurement": "DNA binding, 25-mer oligonucleotide", "setting": "[1]", "result": "does not exhibit any measurable DNA binding"},
      {"measurement": "BAK1 overexpression", "setting": "BAK1", "result": "2-3 folds"},
      {"measurement": "Cellular accumulation of platinum", "setting": "A2780/C30 cells; A2780/C30, 10 μM", "result": "0.10 ± 0.08", "unit": "ng/10^6 cells"},
      {"measurement": "Cellular accumulation of platinum", "setting": "A2780/C30 cells; A2780/C30, 20 μM", "result": "1.00 ± 0.02", "unit": "ng/10^6 cells"},
      {"measurement": "Cellular accumulation of platinum", "setting": "A2780/C30 cells; A2780/C30, 30 μM", "result": "1.00 ± 0.02", "unit": "ng/10^6 cells"},
      {"measurement": "Cellular accumulation of platinum", "setting": "A2780/C30 cells; A2780/C30, 50 μM", "result": "2.00 ± 0.10", "unit": "ng/10^6 cells"},
      {"measurement": "DNA-bound platinum", "setting": "DNA of A2780 cells", "result": "No DNA-bound platinum was detected"},
      {"measurement": "IC50", "setting": "CHO cell line", "result": "35 ± 5", "unit": "µM"},
      {"measurement": "pKa1", "setting": "[2]; [5]", "result": "2.6 ± 0.2"},
      {"measurement": "pKa2", "setting": "[2]; [5]", "result": "4.4 ± 0.2"},
      {"measurement": "pKa1 (value in parentheses)", "setting": "[2]; second value printed in parentheses under pKa1, not explained", "result": "(3.3 ± 0.1)"},
      {"measurement": "IC50", "setting": "[3]", "result": "20 ± 4", "unit": "µM"},
      {"measurement": "fas over-expression compared to the control", "setting": "fas", "result": 6, "unit": "fold"},
      {"measurement": "decomposition / deligation at pH 4.2", "setting": "[4]; pH 4.2, six days", "result": "considerable decomposition"},
      {"measurement": "decomposition at pH 8", "setting": "[4]; pH 8, up to six days", "result": "no decomposition"},
      {"measurement": "Cellular accumulation of platinum", "setting": "A2780 cells; A2780, 10 μM", "result": "1.00 ± 0.10", "unit": "ng/10^6 cells"},
      {"measurement": "Cellular accumulation of platinum", "setting": "A2780 cells; A2780, 20 μM", "result": "1.50 ± 0.30", "unit": "ng/10^6 cells"},
      {"measurement": "Cellular accumulation of platinum", "setting": "A2780 cells; A2780, 30 μM", "result": "3.00 ± 1.00", "unit": "ng/10^6 cells"},
      {"measurement": "Cellular accumulation of platinum", "setting": "A2780 cells; A2780, 50 μM", "result": "5.00 ± 0.30", "unit": "ng/10^6 cells"},
      {"measurement": "accumulation in A2780 cells", "setting": "A2780 cells; at 10 μM concentration", "result": 1.0, "unit": "ng Pt/10^6 cells"}
    ]}
  ]
}
